This is an account of results in patent US20150175599A1, “FAAH Inhibitors” (Ironwood Pharmaceuticals, Inc., priority 2010, published 2015).

Some results are limits rather than exact numbers.

The target in the assay is T1, FAAH (Rattus norvegicus, UniProt P97612).
T1 construct: For the assay of FAAH activity in rat brain membrane (RBM) homogenates; tissue Charles River (animals); host or cells: rat whole brain, membrane fraction
T1 sequence (P97612 1-579): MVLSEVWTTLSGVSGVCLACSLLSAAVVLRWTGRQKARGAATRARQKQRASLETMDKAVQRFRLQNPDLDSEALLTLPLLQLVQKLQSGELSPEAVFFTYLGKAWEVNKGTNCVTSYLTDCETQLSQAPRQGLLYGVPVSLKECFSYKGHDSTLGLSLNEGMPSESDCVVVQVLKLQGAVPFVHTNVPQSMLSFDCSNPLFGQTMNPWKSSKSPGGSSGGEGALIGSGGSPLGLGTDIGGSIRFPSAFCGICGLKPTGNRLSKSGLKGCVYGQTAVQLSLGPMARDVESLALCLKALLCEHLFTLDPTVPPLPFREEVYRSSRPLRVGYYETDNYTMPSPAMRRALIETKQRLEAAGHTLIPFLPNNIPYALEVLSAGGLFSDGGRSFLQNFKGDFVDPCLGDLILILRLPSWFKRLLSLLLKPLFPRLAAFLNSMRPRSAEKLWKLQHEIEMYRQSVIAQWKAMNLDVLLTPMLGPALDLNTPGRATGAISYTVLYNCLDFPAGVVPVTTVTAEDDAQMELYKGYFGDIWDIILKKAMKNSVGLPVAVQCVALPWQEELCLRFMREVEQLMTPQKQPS
The experiment in a line: FAAH inhibition, rat brain membrane homogenate assay. Format: biochemical. The conditions noted are these: rat brain homogenate; average activity; read-out: Rat Brain Extract FAAH IC50. On the procedure: Adult rats (Charles River CD strain, female, 200 g) were anaesthetized with isofluorane and rapidly decapitated. Each brain was quickly removed and chilled in tubes (3 brains per tube) on ice. About 25 mL of “homogenization buffer” (20 mM HEPES buffer, pH 7.0, with 1 mM MgCl2) was added to 15 to 20 g of brain. The brains were homogenized on ice for 1 minute using an Omni GLH homogenizer (Omni International, Marietta, Ga.). The homogenates were then transferred to three centrifuge tubes and centrifuged at 36,500 g for 20 minutes at 4° C. The supernatant was discarded and each pellet was re-suspended in 25 mL homogenization buffer. The re-suspended material was again centrifuged (36,500 g, 20 minutes at 4° C.). Pellets were combined by re-suspension in 10 mL of homogenization buffer and incubated in a 37° C. water bath for 15 minutes. The tubes were then placed on ice for 5 minutes followed by centrifugation at 36,500 g for 20 minutes at 4° C. The supernatant was discarded and the membrane pellets were then re-suspended in 40 mL of “re-suspension buffer” (50 mM Tris-HCl buffer, pH 7.4, containing 1 mM EDTA and 3 mM MgCl2). A Bradford Protein assay was performed to determine protein concentration. The protein was aliquotted into screw cap Cryo tubes each containing −400 μL, flash-frozen in liquid nitrogen and stored at −80° C. until used for the assay. A similar protocol was used to obtain brain membrane homogenates from mice
FAAH activity was assayed in the respective homogenates described herein (Rat brain, Mouse brain or Human brain) with certain of the exemplary compounds described above using a modification of the method of Omeir et al. (1995 Life Sci. 56:1999) and Fowler et al. (1997 J. Pharmacol. Exp. Ther. 283:729). For the assay of FAAH activity in rat brain membrane (RBM) homogenates, RBM homogenates (7 μg protein in 20 μL final volume of 10 mM Tris pH 6.5) were mixed with 180 μL of a mixture of the following: […] unlabelled anandamide (AEA), 0.03 Ci radio labeled anandamide [ethanolamine 1-^3H](40-60 Ci/mmol; product number ART-626, American Radiolabelled Chemicals, St. Louis, Mo.), 1 mg/mL Bovine Serum Albumin (fatty acid-free BSA, electrophoresis grade, Sigma, St. Louis, Mo.), 10 mM Tris-HCl (pH 6.5), and 1 mM EDTA in the presence and absence of test compounds (vehicle was DMSO at a final concentration of 1%) and incubated for 10 minutes at 37° C. Samples were placed on ice to terminate the reactions.
The ^3H-ethanolamine product and un-reacted ^3H-anandamide substrate were then separated by either: (1) using chloroform/methanol extraction or (2) passing the reaction mixture through a glass fiber filter containing activated charcoal. Samples were extracted with chloroform/methanol by adding 0.4 mL of chloroform/methanol (1:1 v/v), vigorously mixing the samples, and separating the aqueous and organic phases by centrifugation. Radioactivity (corresponding to FAAH-catalyzed breakdown of ^3H-anandamide) found in aliquots (0.2 mL) of the aqueous phase was determined by liquid scintillation counting with quench correction. IC50 values were determined as described by Jonsson et al. (2001 Br. J Pharmacol. 133:1263). Alternatively, reactions were purified using a modification of the solid-phase extraction method described by Wilson et al (2003 Anal. Biochem. 318: 270). This method was modified as follows: after reactions were incubated at 37° C. for 10 minutes and chilled on ice, the reaction mixtures were acidified by adding 10 μL of sodium phosphate solution[0.5M (pH 2.0)]. Next, 90 μL aliquots of the acidified reaction mixtures were applied to activated charcoal (that had been previously washed with methanol as described by Wilson et al. (supra)) containing 80 μL of water on top of a glass fiber filter, centrifuged, and the radioactivity in the eluate was counted as described previously by Wilson et al. (supra). […]

Regarding `COc1cc(NC(=O)C(=O)c2c(C)n(Cc3ccc(Cl)cn3)c3ccc(N(C)C)cc23)ccn1` [Compound 66, 2-(1-((5-chloropyridin-2-yl)methyl)-5-(dimethylamino)-2-methyl-1H-indol-3-yl)-N-(2-methoxypyridin-4-yl)-2-oxoacetamide], the IC50 is below 100 nM. Next, `COc1cc(NC(=O)C(=O)c2c(C)n(Cc3ccc(Cl)cc3)c3ccc(OC(F)(F)F)cc23)ccn1` [Compound 23, 2-(1-(4-chlorobenzyl)-2-methyl-5-(trifluoromethoxy)-1H-indol-3-yl)-N-(2-methoxypyridin-4-yl)-2-oxoacetamide]: below 100 nM; `COc1cc(NC(=O)C(=O)c2c(C)n(Cc3ccc(Cl)cn3)c3cc(C)c(OC)cc23)ccn1` [Compound 95, 2-(1-((5-chloropyridin-2-yl)methyl)-5-methoxy-2,6-dimethyl-1H-indol-3-yl)-N-(2-methoxypyridin-4-yl)-2-oxoacetamide]: below 100 nM; `COc1cc(NC(=O)C(=O)c2c(C)n(Cc3ccc(Cl)cc3)c3ccncc23)ccn1` [Compound 37, 2-(1-(4-chlorobenzyl)-2-methyl-1H-pyrrolo[3,2-c]pyridin-3-yl)-N-(2-methoxypyridin-4-yl)-2-oxoacetamide]: below 100 nM.

Regarding `COc1ccc2c(c1)c(C(=O)C(=O)Nc1ccnc(OC)c1)c(C)n2Cc1ccncc1` [Compound 16, 2-(5-methoxy-2-methyl-1-(pyridin-4-ylmethyl)-1H-indol-3-yl)-N-(2-methoxypyridin-4-yl)-2-oxoacetamide], the IC50 lay within 100 to 1000 nM. Next, `COc1cc(NC(=O)C(=O)c2c(C)n(Cc3ccc(Cl)cn3)c3ccc(Cl)cc23)ccn1` [Compound 63, 2-(5-chloro-1-((5-chloropyridin-2-yl)methyl)-2-methyl-1H-indol-3-yl)-N-(2-methoxypyridin-4-yl)-2-oxoacetamide]: below 100 nM. Regarding `COc1ccc2c(c1)c(C(=O)C(=O)Nc1ccnc(OC)c1F)c(C)n2Cc1ccc(Cl)cc1` [Compound 53, 2-(1-(4-chlorobenzyl)-5-methoxy-2-methyl-1H-indol-3-yl)-N-(3-fluoro-2-methoxypyridin-4-yl)-2-oxoacetamide], the IC50 is below 100 nM. Next, `COc1cnc2c(c1)c(C(=O)C(=O)Nc1ccnc(OC)c1)c(C)n2Cc1ccc(Cl)cc1Cl` [Compound 42, 2-(1-(2,4-dichlorobenzyl)-5-methoxy-2-methyl-1H-pyrrolo[2,3-b]pyridin-3-yl)-N-(2-methoxypyridin-4-yl)-2-oxoacetamide]: below 100 nM. Next, `COc1ccc(Cn2c(C)c(C(=O)C(=O)Nc3ccnc(OC)c3)c3cc(C)ccc32)nc1` [Compound 69, 2-(1-((5-methoxypyridin-2-yl)methyl)-2,5-dimethyl-1H-indol-3-yl)-N-(2-methoxypyridin-4-yl)-2-oxoacetamide]: below 100 nM; `COc1cc(NC(=O)C(=O)c2c(C)n(Cc3ccc(Cl)cc3)c3cc(Cl)c(OC)cc23)ccn1` [Compound 55, 2-(6-chloro-1-(4-chlorobenzyl)-5-methoxy-2-methyl-1H-indol-3-yl)-N-(2-methoxypyridin-4-yl)-2-oxoacetamide]: below 100 nM.

With `COc1cc(NC(=O)C(=O)c2c(C)n(Cc3ncc(Cl)cc3Cl)c3ccccc23)ccn1` [Compound 31, 2-(1-((3,5-dichloropyridin-2-yl)methyl)-2-methyl-1H-indol-3-yl)-N-(2-methoxypyridin-4-yl)-2-oxoacetamide], the 50% inhibitory concentration (IC50) is below 100 nM. As to `COc1cc(NC(=O)C(=O)c2c(C)n(Cc3ccc(Cl)cc3)c3ncc(C)cc23)ccn1` [Compound 76, 2-(1-(4-chlorobenzyl)-2,5-dimethyl-1H-pyrrolo[2,3-b]pyridin-3-yl)-N-(2-methoxypyridin-4-yl)-2-oxoacetamide], the IC50 was below 100 nM. `COc1cc(NC(=O)C(=O)c2c(C)n(Cc3ccc(Cl)cc3)c3ccc([N+](=O)[O-])cc23)ccn1` [Compound 19, 2-(1-(4-chlorobenzyl)-2-methyl-5-nitro-1H-indol-3-yl)-N-(2-methoxypyridin-4-yl)-2-oxoacetamide]: the IC50 was below 100 nM. Next, `COCc1ccc2c(c1)c(C(=O)C(=O)Nc1ccnc(OC)c1)c(C)n2Cc1ccc(Cl)cc1` [Compound 11, 2-(1-(4-chlorobenzyl)-5-(methoxymethyl)-2-methyl-1H-indol-3-yl)-N-(2-methoxypyridin-4-yl)-2-oxoacetamide]: below 100 nM; `COc1cc(NC(=O)C(=O)c2c(C)n(Cc3ccc(Cl)cc3)c3ccc(OC)c(OC)c23)ccn1` [Compound 56, 2-(1-(4-chlorobenzyl)-4,5-dimethoxy-2-methyl-1H-indol-3-yl)-N-(2-methoxypyridin-4-yl)-2-oxoacetamide]: 1000 to 10000 nM.

Turning to `COc1ccc(Cn2c(C)c(C(=O)C(=O)Nc3ccnc(OC)c3)c3cc(OC)cnc32)nc1` [Compound 40, 2-(5-methoxy-1-((5-methoxypyridin-2-yl)methyl)-2-methyl-1H-pyrrolo[2,3-b]pyridin-3-yl)-N-(2-methoxypyridin-4-yl)-2-oxoacetamide], the IC50 is below 100 nM.

Take `COc1cc(NC(=O)C(=O)c2c(C)n(Cc3ccc(Cl)cn3)c3cc(F)c(OC)cc23)ccn1` [Compound 64, 2-(1-((5-chloropyridin-2-yl)methyl)-6-fluoro-5-methoxy-2-methyl-1H-indol-3-yl)-N-(2-methoxypyridin-4-yl)-2-oxoacetamide]: the IC50 was below 100 nM. As for `COc1cnc2c(c1)c(C(=O)C(=O)Nc1ccnc(OC)c1)c(C)n2Cc1ccc(Cl)cn1` [Compound 41, 2-(1-((5-chloropyridin-2-yl)methyl)-5-methoxy-2-methyl-1H-pyrrolo[2,3-b]pyridin-3-yl)-N-(2-methoxypyridin-4-yl)-2-oxoacetamide], the concentration for half-maximal inhibition (IC50) is below 100 nM. Take `COc1ccc(Cn2c(C)c(C(=O)C(=O)Nc3ccnc(OC)c3)c3cc(OC)ccc32)nc1` [Compound 43, 2-(5-methoxy-1-((5-methoxypyridin-2-yl)methyl)-2-methyl-1H-indol-3-yl)-N-(2-methoxypyridin-4-yl)-2-oxoacetamide]: the IC50 was below 100 nM.

`COc1cc(NC(=O)C(=O)c2c(C)n(Cc3ccc(Cl)cc3)c3cnccc23)ccn1` [Compound 35, 2-(1-(4-chlorobenzyl)-2-methyl-1H-pyrrolo[2,3-c]pyridin-3-yl)-N-(2-methoxypyridin-4-yl)-2-oxoacetamide]: the IC50 lay in the range of 100 to 1000 nM. The result for `COc1cc(NC(=O)C(=O)c2c(C)n(Cc3ccc(Cl)cc3)c3cc(F)c(OC)cc23)ccn1` [Compound 72, 2-(1-(4-chlorobenzyl)-6-fluoro-5-methoxy-2-methyl-1H-indol-3-yl)-N-(2-methoxypyridin-4-yl)-2-oxoacetamide] reads below 100 nM.
